Each compound was assayed against T1, voltage-dependent T-type calcium channel subunit alpha-1G (Cav3.2) (Homo sapiens, UniProt O95180) (assay: FLIPR calcium flux assay, HEK293 cells recombinantly expressing Cav3.2). Conditions: Cav3.2-channel, Fluo-4-AM, 3 min incubation, stimulation with 10 mM CaCl2.
T1 construct: expressed in transfected cells; host or cells: HEK293
Type: cell-based
Protocol: In Vitro Methods—Measurement of Calcium Channel Flux by Means of FLIPR Assays.
HEK293 cells recombinantly expressing either voltage-dependent T-type calcium channel subunit […] (Cav3.2) or voltage-dependent L-type calcium channel subunit alpha-1C (Cav1.2) are assayed for calcium flux using the calcium indicator dye Fluo-4-AM (Molecular Devices) and FLIPR technology (Fluorometric Imaging Plate Reader, Molecular Devices) (Xie X, Van Deusen A L, Vitko I, Babu D A, Davies L A, Huynh N, Cheng H, Yang N, Barrett P Q, Perez-Reyes E. Validation of high throughput screening assays against three subtypes of Ca(v)3 T-type channels using molecular and pharmacologic approaches. Assay and Drug Development Technologies 2007, 5(2), 191-203). The HEK293 cells recombinantly expressing Cav3.2 are maintained in DMEM growth medium (Life Technologies) supplemented with 10% Fetal Bovine Serum (FBS), 100 U/ml penicilin (Life Technologies), 100 μg/ml streptomycin (Life Technologies) and 1 mg/ml G418 (Life Technologies). HEK293 cells recombinantly expressing Cav1.2 are maintained in DMEM growth medium (Life technologies) supplemented with 10% FBS, 0.1 mg/ml G418 (Life Technologies), 0.1 mg/ml hygromycin (Life Technologies) and 40 ug/ml zeocin (Life Technologies).
The seeded plates are incubated overnight at 37° C.
The cells are then washed three times with assay buffer (HBSS 1×; 0.375 g/L NaHCO3; 20 mM Hepes; 1% FBS; pH 7.4) and allowed to rest in 50 μl of wash buffer for 30 minutes.
Stock solutions of test compounds are prepared to a concentration of 10 mM in DMSO. For the Cav3.2 assay, serial dilutions of the compounds are prepared in TEAC buffer (100 mM tetraethylammonium chloride; 20 mM Hepes; 2.5 mM CaCl2; 5 mM KCl; 1 mM MgCl2; 1% FBS; pH 7.2), for the Cav1.2 assay serial dilutions are prepared in assay buffer. […] The compounds are incubated with the cells for 3 minutes and Ca2+ entry is stimulated by adding either CaCl2 to a final concentration of 10 mM (Cav3.2 assay) or by adding KCl to a final concentration of 20 mM (Cav1.2 assay). The kinetics of fluorescence increase are recorded for every well and the area under the fluorescence trace for every compound concentration is used to generate inhibition curves using non-linear regression sigmoidal concentration-response curve analysis with in-house software.

T1 sequence (O95180 whole entry): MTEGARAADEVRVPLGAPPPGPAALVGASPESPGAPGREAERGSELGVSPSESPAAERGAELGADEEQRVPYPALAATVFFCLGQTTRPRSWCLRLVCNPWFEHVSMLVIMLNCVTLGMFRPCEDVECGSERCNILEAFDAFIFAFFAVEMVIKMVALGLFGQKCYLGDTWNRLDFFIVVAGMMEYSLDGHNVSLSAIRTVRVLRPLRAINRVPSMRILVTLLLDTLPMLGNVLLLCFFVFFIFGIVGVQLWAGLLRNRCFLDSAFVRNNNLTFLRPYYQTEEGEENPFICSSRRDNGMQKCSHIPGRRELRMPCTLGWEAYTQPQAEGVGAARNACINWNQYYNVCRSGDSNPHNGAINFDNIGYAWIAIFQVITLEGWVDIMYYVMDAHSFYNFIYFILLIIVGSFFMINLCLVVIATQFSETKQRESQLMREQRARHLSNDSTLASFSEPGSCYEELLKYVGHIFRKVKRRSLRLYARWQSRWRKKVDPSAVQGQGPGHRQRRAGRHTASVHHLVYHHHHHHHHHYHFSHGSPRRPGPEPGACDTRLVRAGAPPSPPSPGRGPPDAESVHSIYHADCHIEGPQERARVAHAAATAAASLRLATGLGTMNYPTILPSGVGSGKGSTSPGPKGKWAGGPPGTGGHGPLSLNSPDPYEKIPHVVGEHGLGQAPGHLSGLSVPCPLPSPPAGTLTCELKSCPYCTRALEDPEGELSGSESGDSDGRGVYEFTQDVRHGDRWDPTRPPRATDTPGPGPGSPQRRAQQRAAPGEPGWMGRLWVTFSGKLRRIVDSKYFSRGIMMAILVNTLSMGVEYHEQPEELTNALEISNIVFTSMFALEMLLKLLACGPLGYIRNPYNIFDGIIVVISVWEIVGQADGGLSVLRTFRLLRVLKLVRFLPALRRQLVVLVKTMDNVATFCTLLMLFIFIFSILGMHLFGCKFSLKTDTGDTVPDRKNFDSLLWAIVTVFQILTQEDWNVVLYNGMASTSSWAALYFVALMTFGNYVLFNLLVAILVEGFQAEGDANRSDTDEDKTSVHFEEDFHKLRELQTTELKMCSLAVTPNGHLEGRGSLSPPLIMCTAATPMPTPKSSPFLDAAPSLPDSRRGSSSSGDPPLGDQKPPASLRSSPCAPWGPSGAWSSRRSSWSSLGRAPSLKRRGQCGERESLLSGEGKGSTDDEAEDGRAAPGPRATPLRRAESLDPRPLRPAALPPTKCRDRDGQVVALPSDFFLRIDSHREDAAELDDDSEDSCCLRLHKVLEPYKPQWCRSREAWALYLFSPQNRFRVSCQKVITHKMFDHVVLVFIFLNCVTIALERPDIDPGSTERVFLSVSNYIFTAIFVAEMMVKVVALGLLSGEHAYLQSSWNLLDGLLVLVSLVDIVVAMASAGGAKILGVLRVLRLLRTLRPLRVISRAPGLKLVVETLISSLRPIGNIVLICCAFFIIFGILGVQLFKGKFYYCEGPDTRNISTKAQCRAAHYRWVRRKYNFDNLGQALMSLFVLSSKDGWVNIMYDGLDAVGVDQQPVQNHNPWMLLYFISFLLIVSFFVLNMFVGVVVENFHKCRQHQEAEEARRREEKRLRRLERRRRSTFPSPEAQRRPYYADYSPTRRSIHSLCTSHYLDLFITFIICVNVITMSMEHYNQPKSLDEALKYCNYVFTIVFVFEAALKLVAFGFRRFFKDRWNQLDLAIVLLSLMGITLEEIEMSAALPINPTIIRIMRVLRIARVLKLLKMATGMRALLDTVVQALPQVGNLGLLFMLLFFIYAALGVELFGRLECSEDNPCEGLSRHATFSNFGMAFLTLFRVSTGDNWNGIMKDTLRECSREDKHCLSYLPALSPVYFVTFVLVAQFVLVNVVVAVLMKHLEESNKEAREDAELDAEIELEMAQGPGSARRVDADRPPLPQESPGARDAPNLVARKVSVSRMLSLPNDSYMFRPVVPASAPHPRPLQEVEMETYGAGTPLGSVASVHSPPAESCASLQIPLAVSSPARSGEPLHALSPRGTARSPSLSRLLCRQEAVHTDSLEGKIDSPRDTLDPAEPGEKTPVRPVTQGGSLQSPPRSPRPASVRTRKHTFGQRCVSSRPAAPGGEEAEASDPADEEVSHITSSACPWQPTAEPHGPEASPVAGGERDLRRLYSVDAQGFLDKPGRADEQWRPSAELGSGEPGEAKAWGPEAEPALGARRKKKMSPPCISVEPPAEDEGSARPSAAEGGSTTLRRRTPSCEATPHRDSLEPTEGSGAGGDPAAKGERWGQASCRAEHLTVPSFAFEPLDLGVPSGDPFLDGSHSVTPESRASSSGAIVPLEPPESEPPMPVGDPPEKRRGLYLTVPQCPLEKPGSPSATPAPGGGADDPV

| Compound | IC50 |
| --- | --- |
| N#Cc1ccc(Cn2ccc(NC(=O)Cc3ccc(N4CC(F)C4)cc3)n2)cc1 [Example 72, N-[1-(4-Cyano-benzyl)-1H-pyrazol-3-yl]-2-[4-(3-fluoro-azetidin-l-yl)-phenyl]-acetamide] | 46 nM |
| O=C(Cc1ccc(N2CC(F)C2)cc1)Nc1ccn(Cc2ccc(F)cc2)n1 [Example 73, 2-[4-(3-Fluoro-azetidin-1-yl)-phenyl]-N-[1-(4-fluoro-benzyl)-1H-pyrazol-3-yl]-acetamide] | 7.9 nM |
| N#Cc1ccc(Cn2ccc(NC(=O)Cc3ccc(N4CC[C@H](F)C4)cc3)n2)cc1 [Example 74, N-[1-(4-Cyano-benzyl)-1H-pyrazol-3-yl]-2-[4-((S)-3-fluoro-pyrrolidin-1-yl)-phenyl]-acetamide] | 14 nM |
| O=C(Cc1ccc(N2CC[C@H](F)C2)cc1)Nc1ccn(Cc2ccc(F)cc2)n1 [Example 75, N-[1-(4-Fluoro-benzyl)-1H-pyrazol-3-yl]-2-[4-((S)-3-fluoro-pyrrolidin-1-yl)-phenyl]-acetamide] | 5.2 nM |
| N#Cc1ccc(Cn2ccc(NC(=O)Cc3ccc(N4CCC(F)(F)C4)cc3)n2)cc1 [Example 76, N-[1-(4-Cyano-benzyl)-1H-pyrazol-3-yl]-2-[4-(3,3-difluoro-pyrrolidin-1-yl)-phenyl]-acetamide] | 6.1 nM |
| O=C(Cc1ccc(N2CCC(F)(F)C2)cc1)Nc1ccn(Cc2ccc(F)cc2)n1 [Example 77, 2-[4-(3,3-Difluoro-pyrrolidin-1-yl)-phenyl]-N-[1-(4-fluoro-benzyl)-1H-pyrazol-3-yl]-acetamide] | 9.1 nM |
| O=C(Cc1ccc(-c2ccccn2)cc1)Nc1ccn(Cc2ccc(F)cc2)n1 [Example 82, N-[1-(4-Fluoro-benzyl)-1H-pyrazol-3-yl]-2-(4-pyridin-2-yl-phenyl)-acetamide] | 33 nM |
| O=C(Cc1ccc(-c2cccnc2)cc1)Nc1ccn(Cc2ccc(F)cc2)n1 [Example 83, N-[1-(4-Fluoro-benzyl)-1H-pyrazol-3-yl]-2-(4-pyridin-3-yl-phenyl)-acetamide] | 26 nM |
| O=C(Cc1ccc(-c2ccncc2)cc1)Nc1ccn(Cc2ccc(F)cc2)n1 [Example 84, N-[1-(4-Fluoro-benzyl)-1H-pyrazol-3-yl]-2-(4-pyridin-4-yl-phenyl)-acetamide] | 18 nM |
| O=C(Cc1ccc(-c2ncccn2)cc1)Nc1ccn(Cc2ccc(F)cc2)n1 [Example 85, N-[1-(4-Fluoro-benzyl)-1H-pyrazol-3-yl]-2-(4-pyrimidin-2-yl-phenyl)-acetamide] | 301 nM |
| O=C(Cc1ccc(-c2cncnc2)cc1)Nc1ccn(Cc2ccc(F)cc2)n1 [Example 86, N-[1-(4-Fluoro-benzyl)-1H-pyrazol-3-yl]-2-(4-pyrimidin-5-yl-phenyl)-acetamide] | 140 nM |
| O=C(Cc1cnc(OCC(F)(F)F)c(F)c1)Nc1ccn(Cc2ccc(F)c(F)c2)n1 [Example 95, N-[1-(3,4-Difluoro-benzyl)-1H-pyrazol-3-yl]-2-[5-fluoro-6-(2,2,2-trifluoro-ethoxy)-pyridin-3-yl]-acetamide] | 99 nM |
| O=C(Cc1ccc(N2CCC2)nc1)Nc1ccn(Cc2ccc(F)c(F)c2)n1 [Example 99, 2-(6-Azetidin-1-yl-pyridin-3-yl)-N-[1-(3,4-difluoro-benzyl)-1H-pyrazol-3-yl]-acetamide] | 48 nM |

Other lines, results leading:

| IC50 | Compound |
| --- | --- |
| 275 nM | N#Cc1ccc(Cn2ccc(NC(=O)Cc3ccc(C4CC4)cc3)n2)nc1 [Example 78, N-[1-(5-Cyano-pyridin-2-ylmethyl)-1H-pyrazol-3-yl]-2-(4-cyclopropyl-phenyl)-acetamide] |
| 92 nM | Cc1nccnc1-c1ccc(CC(=O)Nc2ccn(Cc3ccc(F)cc3)n2)cc1 [Example 80, N-[1-(4-Fluoro-benzyl)-1H-pyrazol-3-yl]-2-[4-(3-methyl-pyrazin-2-yl)-phenyl]-acetamide] |
| 131 nM | O=C(Cc1ccc(-c2cnccn2)cc1)Nc1ccn(Cc2ccc(F)cc2)n1 [Example 81, N-[1-(4-Fluoro-benzyl)-1H-pyrazol-3-yl]-2-(4-pyrazin-2-yl-phenyl)-acetamide] |
| 157 nM | O=C(Cc1ccc(-c2ccncn2)cc1)Nc1ccn(Cc2ccc(F)cc2)n1 [Example 87, N-[1-(4-Fluoro-benzyl)-1H-pyrazol-3-yl]-2-(4-pyrimidin-4-yl-phenyl)-acetamide] |
| 109 nM | CC(C)c1ccc(CC(=O)Nc2ccn(Cc3ccc(F)c(F)c3)n2)cn1 [Example 88, N-[1-(3,4-Difluoro-benzyl)-1H-pyrazol-3-yl]-2-(6-isopropyl-pyridin-3-yl)-acetamide] |
| 61 nM | N#Cc1ccc(Cn2ccc(NC(=O)Cc3ccc(N4CC[C@@H](F)C4)cc3)n2)nc1 [Example 89, N-[1-(5-Cyano-pyridin-2-ylmethyl)-1H-pyrazol-3-yl]-2-[4-((R)-3-fluoro-pyrrolidin-1-yl)-phenyl]-acetamide] |
| 75 nM | N#Cc1ccc(Cn2ccc(NC(=O)Cc3ccc(N4CC[C@H](F)C4)cc3)n2)nc1 [Example 90, N-[1-(5-Cyano-pyridin-2-ylmethyl)-1H-pyrazol-3-yl]-2-[4-((S)-3-fluoro-pyrrolidin-1-yl)-phenyl]-acetamide] |
| 23 nM | N#Cc1ccc(Cn2ccc(NC(=O)Cc3ccc(N4CCC(F)(F)C4)cc3)n2)nc1 [Example 91, N-[1-(5-Cyano-pyridin-2-ylmethyl)-1H-pyrazol-3-yl]-2-[4-(3,3-difluoro-pyrrolidin-1-yl)-phenyl]-acetamide] |
| 48 nM | Cc1cncnc1-c1ccc(CC(=O)Nc2ccn(Cc3ccc(F)cc3)n2)cc1 [Example 92, N-[1-(4-Fluoro-benzyl)-1H-pyrazol-3-yl]-2-[4-(5-methyl-pyrimidin-4-yl)-phenyl]-acetamide] |
| 39 nM | CC(C)c1ccc(CC(=O)Nc2ccn(Cc3ccc(OCC(F)(F)F)cn3)n2)cc1 [Example 93, 2-(4-Isopropyl-phenyl)-N-{1-[5-(2,2,2-trifluoro-ethoxy)-pyridin-2-ylmethyl]-1H-pyrazol-3-yl}-acetamide] |
| 8.3 nM | CC(C)c1ccc(CC(=O)Nc2ccn(Cc3ccc(Br)cn3)n2)cc1 [Example 94, N-[1-(5-Bromo-pyridin-2-ylmethyl)-1H-pyrazol-3-yl]-2-(4-isopropyl-phenyl)-acetamide] |
| 53 nM | CC(C)c1ccc(CC(=O)Nc2ccn(Cc3ccc(C4CC4)cn3)n2)cc1 [Example 96, N-[1-(5-Cyclopropyl-pyridin-2-ylmethyl)-1H-pyrazol-3-yl]-2-(4-isopropyl-phenyl)-acetamide] |
| 31 nM | Cc1ccc(Cn2ccc(NC(=O)Cc3ccc(C(C)C)cc3)n2)nc1 [Example 97, 2-(4-Isopropyl-phenyl)-N-[1-(5-methyl-pyridin-2-ylmethyl)-1H-pyrazol-3-yl]-acetamide] |
| 38 nM | CC(C)Cc1ccc(Cn2ccc(NC(=O)Cc3ccc(C(C)C)cc3)n2)nc1 [Example 98, N-[1-(5-Isobutyl-pyridin-2-ylmethyl)-1H-pyrazol-3-yl]-2-(4-isopropyl-phenyl)-acetamide] |
| 60 nM | CCc1ccc(Cn2ccc(NC(=O)Cc3ccc(C(C)C)cc3)n2)nc1 [Example 100, N-[1-(5-Ethyl-pyridin-2-ylmethyl)-1H-pyrazol-3-yl]-2-(4-isopropyl-phenyl)-acetamide] |
| 925 nM | COc1ccc(Cn2ccc(NC(=O)Cc3ccc(N4CCC4)nc3)n2)cc1 [Example 101, 2-(6-Azetidin-1-yl-pyridin-3-yl)-N-[1-(4-methoxy-benzyl)-1H-pyrazol-3-yl]-acetamide] |
| 7050 nM | N#Cc1ccc(Cn2ccc(NC(=O)Cc3ccc(N4CCC4)nc3)n2)nc1 [Example 102, 2-(6-Azetidin-1-yl-pyridin-3-yl)-N-[1-(5-cyano-pyridin-2-ylmethyl)-1H-pyrazol-3-yl]-acetamide] |
| 145 nM | O=C(Cc1ccc(N2CCC2)nc1)Nc1ccn(Cc2ccc(F)cc2)n1 [Example 103, 2-(6-Azetidin-1-yl-pyridin-3-yl)-N-[1-(4-fluoro-benzyl)-1H-pyrazol-3-yl]-acetamide] |
| 4520 nM | COCCOc1ccc(Cn2ccc(NC(=O)Cc3ccc(C(C)C)cc3)n2)nc1 [Example 104, 2-(4-Isopropyl-phenyl)-N-{1-[5-(2-methoxy-ethoxy)-pyridin-2-ylmethyl]-1H-pyrazol-3-yl}-acetamide] |
| 31 nM | CC(C)Oc1ccc(Cn2ccc(NC(=O)Cc3ccc(C(C)C)cc3)n2)nc1 [Example 105, N-[1-(5-Isopropoxy-pyridin-2-ylmethyl)-1H-pyrazol-3-yl]-2-(4-isopropyl-phenyl)-acetamide] |
